From patent US20110251211A9, “METHODS OF USING SUBSTITUTED ISOXAZOLO PYRIDINONES AS DISSOCIATED GLUCOCORTICOIDS” (priority 2009, published 2011) come the findings set out here.

Type in all cases: cell-based
In assay [1] the target is T1, GR (Homo sapiens, UniProt P04150).
T1 construct: expressed in transfected cells; host or cells: AD293 cells
T1 sequence (P04150 1-777): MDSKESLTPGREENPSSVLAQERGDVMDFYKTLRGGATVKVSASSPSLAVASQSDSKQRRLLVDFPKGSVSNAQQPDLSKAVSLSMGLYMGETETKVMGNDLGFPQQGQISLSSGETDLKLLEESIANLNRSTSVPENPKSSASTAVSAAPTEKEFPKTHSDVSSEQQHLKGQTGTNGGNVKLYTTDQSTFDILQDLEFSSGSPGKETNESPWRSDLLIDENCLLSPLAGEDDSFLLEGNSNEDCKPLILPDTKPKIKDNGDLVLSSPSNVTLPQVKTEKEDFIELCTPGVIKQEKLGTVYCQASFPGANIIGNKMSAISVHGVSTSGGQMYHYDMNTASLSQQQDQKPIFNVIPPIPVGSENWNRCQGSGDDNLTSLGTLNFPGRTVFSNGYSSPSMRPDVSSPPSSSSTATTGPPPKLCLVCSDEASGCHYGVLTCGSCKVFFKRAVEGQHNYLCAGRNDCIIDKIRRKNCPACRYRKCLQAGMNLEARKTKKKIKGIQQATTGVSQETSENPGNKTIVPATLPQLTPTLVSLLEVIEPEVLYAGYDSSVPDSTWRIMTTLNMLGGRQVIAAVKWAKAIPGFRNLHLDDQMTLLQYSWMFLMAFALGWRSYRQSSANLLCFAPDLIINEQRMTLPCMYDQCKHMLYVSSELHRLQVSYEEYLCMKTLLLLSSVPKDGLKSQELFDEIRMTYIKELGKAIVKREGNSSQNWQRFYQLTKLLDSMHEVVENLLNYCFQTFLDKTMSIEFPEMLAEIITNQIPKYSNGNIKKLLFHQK
Nature of the assay: GR transrepression of AP1 in AD293 cells (AP1-Luc dual-luciferase reporter). The method, then: FIG. 9 is a bar graph showing the dose-response of Compound #53 on GR transrepression of AP1 in AD293 cells.
GR Transrepression of AP1 in AD293 Cells Transfected with 10 ng GR
AD293 cells were transfected with 10 ng GR, 100 ng AP1-Luc reporter together with 5 ng Renilla control plasmids, then induced by EtOH (vehicle control), Dexamethasone (10 nM), Compound #53 (5 μM), AL438 (1 μM). Dual-Luciferase values were measured by Promega standard manual.
GR Transpression of AP 1 in AD293 Cells Transfected with 50 ng GR
AD293 cells were transfected with 50 ng GR, 100 ng AP1-Luc reporter together with 5 ng Renilla control plasmids, then induced by PMA+EtOH (vehicle control), PMA+Dexamethasone (10 nM), PMA+Compound #53 (5 μM). Dual-Luciferase values were measured by Promega standard manual.
In general terms: Reporter assays use an easily measured gene product as a stand-in for the process of interest.

Assay [2] has as its target T1, GR. Description: GR transrepression of NF-kB in AD293 cells (pNF-kB-Luc dual-luciferase reporter). The method, then: FIG. 10 is a bar graph showing the dose-response of Compound #53 on GR transrepression of NF-kB in AD293 cells.
GR Transrepression of NF-kB in AD293 Cells Transfected with 100 ng GR
[…] Dual-Luciferase values were measured by Promega standard manual.

The target in assay [3] is T1, GR. Nature of the assay: GR transactivation on MMTV in AD293 cells (pHHLuc dual-luciferase reporter). The following applies: FIG. 5. The method, then:
GR Transactivation on MMTV in∘AD293 Cells Transfected with 0.5 ng GR
AD293 cells were transfected with 0.5 ng GR, 100 ng pHHLuc reporter together with 5 ng Renilla control plasmids, then induced by EtOH (vehicle control), Dexamethasone (10 nM), Compound #53 (5 μM), AL438 (1 μM) and DMSO (vehicle control). Dual-Luciferase values were measured by Promega standard manual, Compound #53's transactivation activity on MMTV in AD293 cells is shown in FIG. 5.

Where [4] appears, read: dose-response repression experiments.

Consider `CN(C)Cc1ccc(-c2cc3onc(-c4ccccc4)c3c(=O)n2C)cc1` [Compound #53, 6-(4-((dimethylamino)methyl)phenyl)-5-methyl-3-phenylisoxazolo[4,5-c]pyridin-4(5H)-one], for which the “GR transrepression activity on AP1 compared with currently used GR ligands” value on GR [1] (FIGS. 6-7) is “stronger GR transrepression activity than currently used GR ligands”. Besides, on GR [1] (at 50 μM, dose-response, FIG. 9), the “fold repression for AP1” value is “about 2000”. The “AP-1 activity on the reporter” value at GR [1] (setting [4]) was “almost zero”. The “GR transrepression activity on NF-kB compared with currently used GR ligands” value on GR [2] (FIG. 8) is on record as “stronger GR transrepression activity than currently used GR ligands”. In addition, at GR [2] (at 50 μM, dose-response, FIG. 10), the “fold repression of NF-kB” value was “about 1000”. Further, the “NF-kB activity on the reporter” value on GR [2] (setting [4]) is reported as “almost zero”. Also, at GR [3], the GR transactivation activity entry is “minimal GR transactivation activity”.
